In PubChem BioAssay (NCI):
Where “and” joins values, the source holds several entries; their conditions need not be identical. Identical values can stand only once.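 Cultured in 96-well plates, cells were exposed to test compound for 48 hours across five concentrations. At the GI50, growth is halved. TGI marks complete inhibition of growth.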

Tests used:
Test in all cases: NCI anticancer screen, dose series, 48 h
MDA-MB-435 = test system: MDA-MB-435
OVCAR-8 ovarian = test system: OVCAR-8 ovarian
SW-620 colon = test system: SW-620 colon
SN12C renal = test system: SN12C renal
ACHN renal = test system: ACHN renal
MCF7 breast = test system: MCF7 breast
SNB-19 CNS = test system: SNB-19 CNS
SR leukemia = test system: SR leukemia
NCI-H23 lung = test system: NCI-H23 lung
T-47D breast = test system: T-47D breast

SMILES | GI50 (MDA-MB-435) | TGI (MDA-MB-435) | GI50 (OVCAR-8 ovarian) | TGI (OVCAR-8 ovarian) | GI50 (SW-620 colon) | TGI (SW-620 colon) | GI50 (SN12C renal) | TGI (SN12C renal) | GI50 (ACHN renal) | TGI (ACHN renal) | GI50 (MCF7 breast) | TGI (MCF7 breast) | GI50 (SNB-19 CNS) | TGI (SNB-19 CNS) | GI50 (SR leukemia) | TGI (SR leukemia) | GI50 (NCI-H23 lung) | TGI (NCI-H23 lung) | GI50 (T-47D breast) | TGI (T-47D breast)
CNc1cc(-c2cccc(OC(F)(F)F)c2)nc2ccc(N3CCCC3)cc12 | 1.59 µM and 1.71 µM and 1.63 µM | 2.97 µM and 3.19 µM and 3.09 µM | 1.8 µM and 1.81 µM and 1.82 µM | 3.5 µM and 3.39 µM and 3.55 µM | 1.56 µM and 1.84 µM and 1.75 µM | 3.08 µM and 3.79 µM and 3.6 µM | 1.76 µM and 1.68 µM and 1.71 µM | 3.36 µM and 3.14 µM and 3.26 µM | 1.61 µM and 1.63 µM and 1.74 µM | 2.96 µM and 2.98 µM and 3.12 µM | 1.22 µM and 1.65 µM and 1.75 µM | 2.88 µM and 3.32 µM and 3.62 µM | 1.9 µM and 1.81 µM and 1.88 µM | 3.57 µM and 3.22 µM and 3.36 µM | 0.31 µM and 1.56 µM | 1.78 µM and 4.22 µM | 1.8 µM and 1.94 µM and 1.74 µM | 3.67 µM and 3.62 µM and 3.32 µM | 1.59 µM and 1.76 µM | 3.51 µM and 3.47 µM
COc1ccc2c(c1)-c1c(c3cc(OC)ccc3n(CCN(C)C)c1=O)C2=O | 0.95 µM | 5.73 µM | 0.31 µM | 5.59 µM | 0.208 µM | 2.95 µM | 0.32 µM | 6.16 µM | 0.352 µM | 7.07 µM | 0.221 µM | 5.3 µM | 0.812 µM | 7.18 µM | 0.592 µM | 2.64 µM | 1.59 µM | 8.82 µM | 3.23 µM | 11.4 µM
CC/C=C\C[C@H]1C/C=C2/C(=O)C(Cl)=C[C@@H]2C/C=C\CCCC(=O)O1 | 0.169 µM | 1.43 µM | 0.143 µM | 2.68 µM | 0.0995 µM | 0.596 µM | 0.575 µM | 2.57 µM | 0.3 µM | 0.799 µM | 0.0836 µM | 2.61 µM | 0.665 µM | 3.54 µM | 0.0753 µM | 4.93 µM | 0.459 µM | 1.22 µM | 0.58 µM | 2.36 µM
C=C(C)C(=O)Nc1ccc(-c2c(-c3ccc(Oc4nccc(C)n4)c(F)c3)c3c(N)ncnc3n2C)cc1 | 7.19 µM | 21.3 µM | 4.49 µM | 19.2 µM | 8.7 µM | 25.9 µM | 2.63 µM | 17.2 µM | 3.81 µM | 20.2 µM | 3.55 µM | 16.1 µM | 10.7 µM | > 100 µM | 2.36 µM | 9.64 µM | 4.27 µM | 18.4 µM | 2.97 µM | 35.5 µM
O=C1NC(=NCCc2ccc(Br)cc2)S/C1=C\c1ccc2ncccc2c1 | 11.8 µM | > 25 µM | > 25 µM | > 25 µM | > 25 µM | > 25 µM | > 25 µM | > 25 µM | > 25 µM | > 25 µM | 22.1 µM | > 25 µM | > 25 µM | > 25 µM | 7.31 µM | > 25 µM | > 25 µM | > 25 µM | > 17.1 µM | > 25 µM
C=CCSC(C)=O | – | > 100 µM | – | > 100 µM | – | > 100 µM | – | > 100 µM | – | > 100 µM | – | > 100 µM | – | > 100 µM | – | > 100 µM | – | > 100 µM | – | > 100 µM
Cc1c(C(N)=O)sc2nc(C)n(/N=c3\scc(-c4ccccc4)n3Cc3ccccc3)c(=O)c12 | 2.89 µM | 12.5 µM | 3.49 µM | > 100 µM | 3.16 µM | > 100 µM | 3.84 µM | > 100 µM | 2.86 µM | > 100 µM | 2.92 µM | > 100 µM | 4.8 µM | > 100 µM | 5.74 µM | > 100 µM | 3.12 µM | > 100 µM | 3.25 µM | > 100 µM
